Experimental data taken from patent publication US10556907B2 (AbbVie Inc., priority 2015, dated 2020).
Counter-ions that a name gives are not always drawn.

Assays:
Assay in all cases: Method 1: intracellular Ca2+ release (FLIPR, Calcium 5) in recombinant CHO-K1 cells
Type in all cases: cell-based
[1] = target: T1, human S1PR1 receptor (Homo sapiens, UniProt P21453); details: (1): determined with method 1; read-out: S1P1 EC50
T1 construct: host or cells: CHO-K1
Method in brief: (§1)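 CHO-K1 cells co-expressing the receptor, aequorin and Gq/i5 were loaded with Calcium 5 dye for 1 h at 37 °C, adapted 45 min to RT, then given serially diluted compound in HBSS/20 mmol/L Hepes/2.5 mmol/L probenecid/0.1% BSA, pH 7.4. FLIPR fluorescence was read; EC50 came from nonlinear fits normalized to phospho-fingolimod.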

[2] = target: T2, human S1PR3 receptor (Homo sapiens, UniProt Q99500); details: (1): determined with method 1; read-out: S1P3 EC50
T2 construct: host or cells: CHO-K1
T2 sequence (Q99500 whole entry): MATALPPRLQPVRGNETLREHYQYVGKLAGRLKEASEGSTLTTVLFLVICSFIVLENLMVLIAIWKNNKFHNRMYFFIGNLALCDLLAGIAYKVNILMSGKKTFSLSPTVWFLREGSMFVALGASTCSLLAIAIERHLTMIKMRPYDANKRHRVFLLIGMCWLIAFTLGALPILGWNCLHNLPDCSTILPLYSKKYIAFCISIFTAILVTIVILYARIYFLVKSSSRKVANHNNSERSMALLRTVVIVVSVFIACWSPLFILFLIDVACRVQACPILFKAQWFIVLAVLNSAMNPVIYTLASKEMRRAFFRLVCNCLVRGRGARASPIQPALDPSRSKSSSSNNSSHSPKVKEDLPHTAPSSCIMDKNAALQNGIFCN
Method in brief: as §1

[3] = target: T3, human S1PR4 receptor (Homo sapiens, UniProt O95977); details: (1): determined with method 1; read-out: S1P4 EC50
T3 construct: host or cells: CHO-K1
T3 sequence (O95977 1-384): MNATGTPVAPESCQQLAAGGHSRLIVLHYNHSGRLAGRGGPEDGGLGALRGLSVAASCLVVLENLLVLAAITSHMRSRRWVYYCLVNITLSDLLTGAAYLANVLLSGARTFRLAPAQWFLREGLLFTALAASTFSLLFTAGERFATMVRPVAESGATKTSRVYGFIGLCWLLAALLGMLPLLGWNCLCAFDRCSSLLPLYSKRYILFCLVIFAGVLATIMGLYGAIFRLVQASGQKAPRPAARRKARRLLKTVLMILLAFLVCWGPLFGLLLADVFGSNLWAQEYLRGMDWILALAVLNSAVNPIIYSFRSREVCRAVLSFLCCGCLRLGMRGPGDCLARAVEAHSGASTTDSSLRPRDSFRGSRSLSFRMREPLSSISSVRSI
Method in brief: as §1

[4] = target: T4, human S1PR5 receptor (Homo sapiens, UniProt Q9H228); details: agonist potency, determined with method 1 (symbols A-D); read-out: S1P5 EC50 range
T4 construct: host or cells: CHO-K1
T4 sequence (Q9H228 whole entry): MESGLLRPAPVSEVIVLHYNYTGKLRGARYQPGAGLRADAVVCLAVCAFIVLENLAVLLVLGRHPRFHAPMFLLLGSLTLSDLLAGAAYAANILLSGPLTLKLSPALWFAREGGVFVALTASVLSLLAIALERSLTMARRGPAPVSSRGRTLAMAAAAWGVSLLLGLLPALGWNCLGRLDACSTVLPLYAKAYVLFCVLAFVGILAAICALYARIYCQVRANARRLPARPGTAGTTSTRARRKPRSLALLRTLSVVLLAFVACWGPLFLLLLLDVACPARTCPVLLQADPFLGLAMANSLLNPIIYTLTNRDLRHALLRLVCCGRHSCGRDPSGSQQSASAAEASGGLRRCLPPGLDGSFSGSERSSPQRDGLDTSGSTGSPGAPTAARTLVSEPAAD
Method in brief: as §1

T1 sequence (P21453 whole entry): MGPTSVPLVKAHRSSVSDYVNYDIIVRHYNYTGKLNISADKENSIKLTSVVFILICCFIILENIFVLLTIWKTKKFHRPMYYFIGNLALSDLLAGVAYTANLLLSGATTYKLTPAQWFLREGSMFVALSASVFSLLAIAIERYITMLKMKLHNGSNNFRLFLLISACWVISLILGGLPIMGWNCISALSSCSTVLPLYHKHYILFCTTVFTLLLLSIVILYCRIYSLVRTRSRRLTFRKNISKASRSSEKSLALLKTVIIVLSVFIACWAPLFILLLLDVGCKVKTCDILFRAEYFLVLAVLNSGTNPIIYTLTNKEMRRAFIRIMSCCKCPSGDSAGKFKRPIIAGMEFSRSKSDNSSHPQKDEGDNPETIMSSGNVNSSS

Row | SMILES | EC50 [1] [µM] | EC50 [2] [µM] | EC50 [3] [µM] | EC50 [4] [µM]
1 | CC(CCC(=O)O)N1CCc2nc(-c3ccc(Cc4ccccc4)cc3)ncc2C1 (stereo not drawn) [Compound 214, 4-(2-(4-benzylphenyl)-7,8-dihydropyrido[4,3-d]pyrimidin-6(5H)-yl)pentanoic acid] | > 1 | > 1 | > 1 | 1 to 10
2 | O=C(O)CCN1CCc2nc(-c3ccc(OCc4cccc(Cl)c4)cc3)c(F)cc2C1 [Compound 189, 3-(2-(4-((3-chlorobenzyl)oxy)phenyl)-3-fluoro-7,8-dihydro-1,6-naphthyridin-6(5H)-yl)propanoic acid] | > 1 | > 1 | > 1 | < 0.01
3 | Cc1ccccc1COc1ccc(-c2ncc3c(n2)CCN(CC(C)CC(=O)O)C3)cc1 (stereo not drawn) [Compound 234, 3-methyl-4-[2-[4-(o-tolylmethoxy)phenyl]-7,8-dihydro-5H-pyrido[4,3-d]pyrimidin-6-yl]butanoic acid 2,2,2-trifluoroacetic acid salt] | < 1 | > 1 | > 1 | < 0.01
4 | CC(CC(=O)O)CN1CCc2nc(-c3ccc(OCc4cccc(F)c4)cc3)ncc2C1 (stereo not drawn) [Compound 227, 4-(2-(4-((3-fluorobenzyl)oxy)phenyl)-7,8-dihydropyrido[4,3-d]pyrimidin-6(5H)-yl)-3-methylbutanoic acid] | > 1 | > 1 | < 1 | < 0.01
5 | CC(CC(=O)O)CN1CCc2nc(-c3ccc(CCc4ccc(Cl)cc4)cc3)ncc2C1 (stereo not drawn) [Compound 244, 4-(2-(4-(4-chlorophenethyl)phenyl)-7,8-dihydropyrido[4,3-d]pyrimidin-6(5H)-yl)-3-methylbutanoic acid] | > 1 | > 1 | > 1 | < 0.01
6 | Cc1ccc(COc2ccc(-c3ncc4c(n3)CCN(CC(C)CC(=O)O)C4)c(F)c2)cc1C(F)(F)F (stereo not drawn) [Compound 279, 4-[2-[2-fluoro-4-[[4-methyl-3-(trifluoromethyl)phenyl]methoxy]phenyl]-7,8-dihydro-5H-pyrido[4,3-d]pyrimidin-6-yl]-3-methyl-butanoic acid 2,2,2-trifluoroacetic acid salt] | > 1 | > 1 | > 1 | 0.01 to 0.1
7 | CC(CC(=O)O)CN1CCc2nc(-c3ccc(OCc4cccc(Cl)c4Cl)cc3)ncc2C1 (stereo not drawn) [Compound 268, 4-[2-[4-[(2,3-dichlorophenyl)methoxy]phenyl]-7,8-dihydro-5H-pyrido[4,3-d]pyrimidin-6-yl]-3-methyl-butanoic acid 2,2,2-trifluoroacetic acid salt] | > 1 | > 1 | > 1 | 0.01 to 0.1
8 | CC(CC(=O)O)CN1CCc2nc(-c3ccc(OCc4ccccc4Cl)cc3)ncc2C1 (stereo not drawn) [Compound 229, 4-[2-[4-[(2-chlorophenyl)methoxy]phenyl]-7,8-dihydro-5H-pyrido[4,3-d]pyrimidin-6-yl]-3-methyl-butanoic acid 2,2,2-trifluoroacetic acid salt] | < 1 | > 1 | > 1 | < 0.01
9 | Cc1ccc(C(F)(F)F)c(COc2ccc(-c3ncc4c(n3)CCN(CC(C)CC(=O)O)C4)cc2)c1 (stereo not drawn) [Compound 275, 3-methyl-4-[2-[4-[[5-methyl-2-(trifluoromethyl)phenyl]methoxy]phenyl]-7,8-dihydro-5H-pyrido[4,3-d]pyrimidin-6-yl]butanoic acid 2,2,2-trifluoroacetic acid salt] | > 1 | > 1 | > 1 | 0.01 to 0.1
10 | CC(CCN1CCc2nc(-c3ccc(OCc4ccc(Cl)cc4)cc3)c(F)cc2C1)C(=O)O (stereo not drawn) [Compound 181] | < 1 | > 1 | > 1 | < 0.01

Results, then the compound that gave them:

Row | EC50 [1] [µM] | EC50 [2] [µM] | EC50 [3] [µM] | EC50 [4] [µM] | SMILES
11 | > 1 | > 1 | > 1 | < 0.01 | CC(CC(=O)O)CN1CCc2nc(-c3ccc(CCc4ccc(Cl)cc4F)cc3)ncc2C1 (stereo not drawn) [Compound 250, 4-(2-(4-(4-chloro-2-fluorophenethyl)phenyl)-7,8-dihydropyrido[4,3-d]pyrimidin-6(5H)-yl)-3-methylbutanoic acid]
12 | < 1 | < 1 | < 1 | 0.1 to 1 | O=C(O)CN1CCc2nc(-c3ccc(OCc4c(Cl)cccc4Cl)cc3)ncc2C1 [Compound 34, 2-(2-(4-((2,6-dichlorobenzyl)oxy)phenyl)-7,8-dihydropyrido[4,3-d]pyrimidin-6(5H)-yl)acetic acid]
13 | > 1 | > 1 | > 1 | 0.1 to 1 | O=C(O)CC1CC(N2CCc3nc(-c4ccc(OCc5cccc(Cl)c5)cc4)ncc3C2)C1 (stereo not drawn) [Compound 3, 2-(3-(2-(4-((3-chlorobenzyl)oxy)phenyl)-7,8-dihydropyrido[4,3-d]pyrimidin-6(5H)-yl)cyclobutyl)acetic acid]
14 | < 1 | > 1 | > 1 | < 0.01 | Cc1cccc(COc2ccc(-c3ncc4c(n3)CCN(CC(C)CC(=O)O)C4)cc2)c1 (stereo not drawn) [Compound 230, 3-methyl-4-(2-(4-((3-methylbenzyl)oxy)phenyl)-7,8-dihydropyrido[4,3-d]pyrimidin-6(5H)-yl)butanoic acid]
15 | > 1 | > 1 | > 1 | 1 to 10 | O=C(O)C1CC(N2CCc3nc(C#Cc4cccc(Cl)c4)ncc3C2)C1 (stereo not drawn) [Compound 62, 3-(2-((3-chlorophenyl)ethynyl)-7,8-dihydropyrido[4,3-d]pyrimidin-6(5H)-yl)cyclobutanecarboxylic acid]
16 | > 1 | > 1 | > 1 | < 0.01 | O=C(O)CCN1CCc2cc(-c3ccc(OCc4cccc(F)c4)cc3)ncc2C1 [Compound 176, 3-(6-(4-((3-fluorobenzyl)oxy)phenyl)-3,4-dihydro-2,7-naphthyridin-2(1H)-yl)propanoic acid]
17 | < 1 | > 1 | > 1 | < 0.01 | CC(CC(=O)O)CN1CCc2nc(-c3ccc(OCc4ccccc4F)cc3)ncc2C1 (stereo not drawn) [Compound 235, 4-[2-[4-[(2-fluorophenyl)methoxy]phenyl]-7,8-dihydro-5H-pyrido[4,3-d]pyrimidin-6-yl]-3-methyl-butanoic acid 2,2,2-trifluoroacetic acid salt]
18 | > 1 | > 1 | > 1 | 0.01 to 0.1 | Cc1cc(-c2ncc3c(n2)CCN(CC(C)CC(=O)O)C3)ccc1OCc1ccc(Cl)cc1 (stereo not drawn) [Compound 258, 4-(2-(4-((4-chlorobenzyl)oxy)-3-methylphenyl)-7,8-dihydropyrido[4,3-d]pyrimidin-6(5H)-yl)-3-methylbutanoic acid]
